Laboratory results reported in patent US5216005A, “Immunosuppressive analogues and derivatives of succinylacetone” (priority 1990, dated 1993).

What was measured:
[1] = test system: adjuvant induced arthritis; experiment: adjuvant induced arthritis in rats, overall arthritis score; intraarticular right paw, per kg: succinylacetone 325 μg, methyl ester 150 μg, 4-acetyl-5-oxohexanoate 560 μg; type: in vivo, rat
human lymphocytes = experiment: tritiated thymidine uptake in primary mixed lymphocyte reaction; type: cell-based; details: for CPM ± SD: 1° MLR
From the text: The in vitro mixed lymphocyte assay described below is presently employed in the clinical setting as an indicator of histocompatibility, and is premised on the transformation of resting genetically dissimilar lymphocytes into cells which synthesize DNA and undergo proliferation.
(§1) The mixed lymphocyte reaction assay can be carried out by techniques well known to those skilled in the art. L. Hudson and F. C. Huy, Practical Immunology, p. 260, Blackwell Scientific Publications (1976). Briefly this consists of isolating lymphocytes from human peripheral blood by standard density gradient centrifugation techniques from two separate individuals. Approximately 2×10^5 lymphocytes of each individual are combined to yield a total of 4×10^5 lymphocytes per culture. All procedures are carried out under sterile conditions, and the lymphocytes are isolated and kept in physiologically compatible solutions. To the mixture of lymphocytes is added a desired amount of an appropriate succinylacetone derivative, and after different times an aliquot of the mixture is removed and assayed for IL-2 or IFN-γ, or ^3 H-T is measured.
As mentioned above, one measure of an immune response as reflected in a mixed lymphocyte assay is the stimulation of DNA synthesis, and a concomitant increase in cell number. Thus, to further ascertain the immunosuppressive activity of succinylacetonyl-proline-NH-PEG, its effect on inhibition of thymocyte growth, as detected by uptake of tritiated thymidine, was assayed.

[2] = test system: IL-2 (human lymphoid cells); experiment: IL-2 production in primary mixed lymphocyte reaction (HT-2 cell assay); type: cell-based; design: IL-2: unit not given here; details: for IL-2: 1° MLR
Protocol: as §1, with “Derivatives of succinylacetone were tested for immunosuppressive activity in several different types of assay systems. The first consisted of measuring the amounts of interleukin-2 (IL-2), and interferon-γ (IFN-γ) produced by human lymphoid cells in a mixed lymphocyte reaction. Low levels of these molecules in the reaction mixture indicate that the immune system is being suppressed by the subject succinylacetone derivatives. IL-2 was measured by enumerating the number of viable HT-2 cells found after an 18-24 hours period. HT-2 cells are a mouse IL-2 dependent cell line which die in the absence of IL-2. The assay is described by Gillis et al., J. of Immunol. […] The” for “The”, “260, Blackwell Scientific Publications (1976).” left out, “^[…]” for “^3 H-T”

human lymphoid cells = experiment: tritiated thymidine uptake in secondary mixed lymphocyte reaction; type: cell-based; details: 2°-MLR; for inhibition at 740 µM / inhibition at 2200 µM / inhibition at 6700 µM / inhibition at 20000 µM: Homo sapiens, Lymphocyte
Protocol: In addition to testing the immunosuppressive activities of succinylacetone derivatives in a primary mixed lymphocyte reaction, or a phytohemagglutinin stimulation assay, two of the derivatives, succinylacetone methyl ester and methyl 4-acetyl-5-oxohexanoate, were tested in a secondary mixed lymphocyte reaction assay. The secondary mixed lymphocyte assays differs from the primary mixed lymphocyte reaction assays in that they employ many more primed responder cells that are responsive to the primary stimulating cells. The presence of such responsive cells is a reflection of immunological memory in an ongoing immunological response. […] These cells are then used in the secondary mixed lymphocyte reaction. It is worth noting that because a secondary mixed lymphocyte reaction is greatly enriched for responsive cells, fewer cells can be used in the secondary assay.
It will be appreciated that described therein is a method for carrying out secondary lymphocyte reactions using mouse cells, however such methods are generally applicable to performing secondary mixed lymphocyte reactions using human cells with modifications that are well known to those skilled in the art. […] The assays were conducted in duplicate involving lymphoid cells isolated from two individuals.

SMILES: COC(=O)CCC(=O)CC(C)=O [Succinylacetone Methyl Ester, methyl 4-6-dioxoheptanoate]
- overall arthritis score ([1]; Exp. I (treated from same day), day 14): 2.4 ± 2.5
- overall arthritis score ([1]; Exp. I (treated from same day), day 16): 2.8 ± 2.4
- overall arthritis score ([1]; Exp. I (treated from same day), day 18): 3.4 ± 1.9
- overall arthritis score ([1]; Exp. I (treated from same day), day 20): 6.4 ± 3.6
- overall arthritis score ([1]; Exp. I (treated from same day), day 22): 6.8 ± 4.0
- overall arthritis score ([1]; Exp. I (treated from same day), day 24): 7.2 ± 4.1
- overall arthritis score ([1]; Exp. I (treated from same day), day 26): 6.2 ± 3.7
- overall arthritis score ([1]; Exp. II (treated from day 4), day 14): 1.6 ± 2.6
- overall arthritis score ([1]; Exp. II (treated from day 4), day 16): 2 ± 2.8
- overall arthritis score ([1]; Exp. II (treated from day 4), day 18): 3.2 ± 4.0
- overall arthritis score ([1]; Exp. II (treated from day 4), day 20): 4.0 ± 4.6
- overall arthritis score ([1]; Exp. II (treated from day 4), day 22): 4.8 ± 4.1
- overall arthritis score ([1]; Exp. II (treated from day 4), day 24): 4.8 ± 4.1
- overall arthritis score ([1]; Exp. II (treated from day 4), day 26): 5.6 ± 4.7
- overall arthritis score ([1]; Exp. III (treated from day 14), day 14): 1.2 ± 1.8
- overall arthritis score ([1]; Exp. III (treated from day 14), day 16): 1.4 ± 1.3
- overall arthritis score ([1]; Exp. III (treated from day 14), day 18): 1.4 ± 2.2
- overall arthritis score ([1]; Exp. III (treated from day 14), day 20): 4.8 ± 3.8
- overall arthritis score ([1]; Exp. III (treated from day 14), day 22): 4.4 ± 3.6
- overall arthritis score ([1]; Exp. III (treated from day 14), day 24): 4.4 ± 3.6
- overall arthritis score ([1]; Exp. III (treated from day 14), day 26): 3.0 ± 3.3
- effect on arthritis ([1]; comparison of treatment schedules, in words): most effective when it is administered 14 days after induction of the disease
- CPM ± SD (human lymphocytes; Exp I, 3 μM): 81740 CPM
- CPM ± SD (human lymphocytes; Exp I, 9 μM): 87101 CPM
- CPM ± SD (human lymphocytes; Exp I, 27 μM): 75211 CPM
- CPM ± SD (human lymphocytes; Exp I, 81 μM): 80182 CPM
- CPM ± SD (human lymphocytes; Exp I, 244 μM): 66159 CPM
- CPM ± SD (human lymphocytes; Exp I, 733 μM): 30535 CPM
- CPM ± SD (human lymphocytes; Exp I, 2.2 mM): 3185 CPM
- CPM ± SD (human lymphocytes; Exp I, 6.7 mM): 89 CPM
- CPM ± SD (human lymphocytes; Exp I, 20 mM): 164 CPM
- CPM ± SD (human lymphocytes; Exp II, 3 μM): 114428 CPM
- CPM ± SD (human lymphocytes; Exp II, 9 μM): 110425 CPM
- CPM ± SD (human lymphocytes; Exp II, 27 μM): 97879 CPM
- CPM ± SD (human lymphocytes; Exp II, 81 μM): 87595 CPM
- CPM ± SD (human lymphocytes; Exp II, 244 μM): 78306 CPM
- CPM ± SD (human lymphocytes; Exp II, 733 μM): 40700 CPM
- CPM ± SD (human lymphocytes; Exp II, 2.2 mM): 33497 CPM
- CPM ± SD (human lymphocytes; Exp II, 6.7 mM): 126 CPM
- CPM ± SD (human lymphocytes; Exp II, 20 mM): 90 CPM
- IC50 (human lymphocytes; Homo sapiens, Lymphocyte, read-out: concentration for 50% reduction in thymidine uptake): ~733 µM
- IL-2 ([2]; Exp I, 3 μM): 41
- IL-2 ([2]; Exp I, 9 μM): 28
- IL-2 ([2]; Exp I, 27 μM): 25
- IL-2 ([2]; Exp I, 81 μM): 24
- IL-2 ([2]; Exp I, 244 μM): 19
- IL-2 ([2]; Exp I, 733 μM): 14
- IL-2 ([2]; Exp I, 2.2 mM): < 6
- IL-2 ([2]; Exp I, 6.7 mM): < 6
- IL-2 ([2]; Exp I, 20 mM): < 6
- IL-2 ([2]; Exp II, 3 μM): 34
- IL-2 ([2]; Exp II, 9 μM): 38
- IL-2 ([2]; Exp II, 27 μM): 34
- IL-2 ([2]; Exp II, 81 μM): 28
- IL-2 ([2]; Exp II, 244 μM): 28
- IL-2 ([2]; Exp II, 733 μM): 23
- IL-2 ([2]; Exp II, 2.2 mM): < 8
- IL-2 ([2]; Exp II, 6.7 mM): < 8
- IL-2 ([2]; Exp II, 20 mM): < 8
- IC50 ([2]; Homo sapiens, HT2, read-out: concentration that inhibits IL-2 production by about 50%): ~733 µM
- CPM (human lymphoid cells; Exp I, 247 μM): 87337 CPM
- CPM (human lymphoid cells; Exp I, 740 μM): 67456 CPM
- CPM (human lymphoid cells; Exp I, 2.2 mM): 11778 CPM
- CPM (human lymphoid cells; Exp I, 6.7 mM): 51 CPM
- CPM (human lymphoid cells; Exp I, 20 mM): 64 CPM
- CPM (human lymphoid cells; Exp II, 247 μM): 125345 CPM
- CPM (human lymphoid cells; Exp II, 740 μM): 85447 CPM
- CPM (human lymphoid cells; Exp II, 2.2 mM): 29851 CPM
- CPM (human lymphoid cells; Exp II, 6.7 mM): 62 CPM
- CPM (human lymphoid cells; Exp II, 20 mM): 87 CPM
- inhibition at 740 µM (human lymphoid cells; Exp I, 740 μM): 16.3%
- inhibition at 2200 µM (human lymphoid cells; Exp I, 2.2 mM): 85.4%
- inhibition at 6700 µM (human lymphoid cells; Exp I, 6.7 mM): 9.99%
- inhibition at 20000 µM (human lymphoid cells; Exp I, 20 mM): 99.9%
- inhibition at 740 µM (human lymphoid cells; Exp II, 740 μM): 8.5%
- inhibition at 2200 µM (human lymphoid cells; Exp II, 2.2 mM): 68%
- inhibition at 6700 µM (human lymphoid cells; Exp II, 6.7 mM): 9.99%
- inhibition at 20000 µM (human lymphoid cells; Exp II, 20 mM): 99.9%
